# Laboratory results from patent publication US9883691B2, “Food and beverage products containing 1,3-propanediol and methods of modifying flavor release using 1,3-propanediol” (Kraft Foods Group Brands LLC, priority 2012, dated 2018).
# Experiments:
# Assay type in all cases: physicochemical
# [1] = PTR-MS headspace release with various non-aqueous liquids (diols) at 0.05:100 (Example 3); details: ratio 0.05:100; for PTR-MS headspace release in 1,3-butanediol: non-aqueous liquid 1,3-butanediol; for PTR-MS headspace release in 1,3-butanediol / PTR-MS headspace release in 1,3-propanediol / PTR-MS headspace release in 1,4-butanediol / PTR-MS headspace release in 1,7-heptanediol / PTR-MS headspace release in Propylene glycol: diluted in water; for PTR-MS headspace release in 1,3-propanediol: non-aqueous liquid 1,3-propanediol; for PTR-MS headspace release in 1,4-butanediol: non-aqueous liquid 1,4-butanediol; for PTR-MS headspace release in 1,7-heptanediol: non-aqueous liquid 1,7-heptanediol; for PTR-MS headspace release in Propylene glycol: non-aqueous liquid propylene glycol
# Description: […]. The flavoring was then diluted in water for analysis. The final concentration of each compound was held constant at 8 ppm except furfuryl mercaptan was included at 1.6 ppm to maintain a constant flavor level in the resulting beverage while the non-aqueous liquid varied but the ratio of each compound to non-aqueous liquid was held constant at 0.05:100. A variety of non-aqueous liquids were evaluated, including 1,4-butandiol; 1,7-heptandiol; 1,3-butandiol, propylene glycol, and 1,3-propanediol.
# Samples were analyzed by PTR-MS as described in Example 1.
# Percent suppression was calculated by the following formula: (I1-3-diol−Ialternate diol)/Ialternate diol×100.
# [2] = PTR-MS headspace release in neat solvent, solvent/solvent experiment (Example 5); parameters: key to Release Differences: “Z” indicates that 1,3-propanediol had higher equilibrium maximum (meaning more of the flavor was released in 1,3-propanediol); “P” indicates that propylene glycol had higher equilibrium maximum; “-” indicates no statistical difference (95% significance) between the two samples; details: 1,3-propanediol versus propylene glycol as sole solvent; 1.5 hrs equilibration; 95% significance
# Description: […]. Then the head space was analyzed as described above.
# 0.86 grams of the concentrate was added to 100 grams of either propylene glycol or 1,3-propanediol to provide a 1,3-propanediol diluted concentrate or propylene glycol diluted concentrate. The diluted concentrates were then further diluted as outlined in Table 10 below.
# A 15 gram sample was weighed into a 4 oz vessel and analyzed at 1.5 hrs. of equilibration time as described in the method of Example 4.
# [3] = PTR-MS headspace release from stored beverages, water/solvent experiment (Example 4); details: beverage stored refrigerated; 1.5, 24, 48 and 72 hours; Tukey-Kramer
# Description: 0.86 grams of the flavor concentrate was then added to 100 grams of either propylene glycol or 1,3-propanediol to provide diluted concentrates. […].
# The beverages were then stored in sealed containers in a refrigerator. The container was opened five times over the course of the experiment and therefore represented a beverage in a sealed container being opened for multiple uses. 15 gram samples were weighed into a 4 ounce cup and analyzed at 1.5 hours, 24 hours, 48 hours, and 72 hours after storage.
# The samples were analyzed in triplicate by PTR-MS as described below to determine impact of 1,3-propanediol or propylene glycol on release of the flavors from the beverage. The PTR-MS was performed as follows. A sampling apparatus was needed in conjunction with the PTR-MS inlet to prevent variations caused by headspace kinetics. The sampling apparatus used includes a 4 ounce sample vessel equipped with a 2-hole lid which may be sealed by an adhesive film to allow equilibration. […]. The holes were equal sized (˜2 mm diameter) and match the outer diameter of the PTR-MS inlet line. The flow of the dilution gas into the vessel was regulated by the vacuum and proportional valve of the PTR-MS inlet system. […] The 2 holes in the lid were equidistant from the edge of the vessel (˜20 mm) and ˜30 mm from each other. The PTR-MS inlet was braced by clamps in a fixed position vertically above the laboratory bench (˜55 mm) and a silicone rubber depth gauge was affixed to the PTR-MS inlet tubing and set at 18 mm. The PTR-MS inlet was consistently oriented in a vertical position […] below the inside lid of the vessel and 19 mm above the sample in the vessel. The sample vessel was then held in place during sampling according to the depth gauge on the inlet line and the vessel was subsequently supported on the bench by a 10 mm plastic spacer.
# 15 grams of the sample to be tested (e.g., food or beverage product containing 1,3-propanediol) are added to the vessel and the vessel is sealed and allowed to equilibrate at room temperature (˜22° C.) for 90 minutes. At the time of sampling, the seal was removed from both the sampling hole and the dilution gas hole in the lid and the vessel was immediately affixed to the PTR-MS inlet via the sampling hole. The real-time released flavor was measured from the headspace of the sample vessel for two minutes (according to the conditions listed in Table 1 above).
# The data was analyzed using PTR-MS Viewer, Version 3.0.0.101 (Ionicon Analytik G.m.b.H). The point of maximum intensity for each compound of interest was determined and recorded according to the PTR-MS Viewer software. The maximum intensity in counts over the timescale for each compound of interest was used for data analysis as it reflected the static equilibrium headspace concentration in the system at the moment of seal removal. Due to the necessity of a dilution gas, the volatile concentration decreased over time as the compounds of interest re-equilibrated to a state of dynamic equilibrium in the headspace.
# The statistical differences were determined by Tukey-Kramer Honest […]. […].
# [4] = PTR-MS headspace release at various flavor compound to 1,3-propanediol or PG ratios (Example 2); details: for release suppressed in the presence of 1,3-propanediol: 10% cut-off for significant difference, relative to PG; for Percent Suppression by 1,3-propanediol: (IZ−IPG)/IPG×100
# Description: The compounds listed below in Table 3 were added together to provide a liquid flavoring to analyze the role, if any, of the amount of 1,3-propanediol on flavor release. […] The amount of each flavor compound in the beverage was held constant at 8 ppm except furfuryl mercaptan was included at 1.6 ppm while the amount of propylene glycol or 1,3-propanediol varied.
# The percent suppression was calculated using the following formula: (IZ−IPG)/IPG×100, where I is peak height, “Z” is 1,3-propanediol and “PG” is propylene glycol.
# [5] = flavor/1,3-propanediol ratio of 0.05:100
# [6] = ratio 0.005:100, negative = suppressed vs PG
Structure (SMILES),"PTR-MS headspace release in 1,3-butanediol [1]","PTR-MS headspace release in 1,3-propanediol [1]","PTR-MS headspace release in 1,4-butanediol [1]","PTR-MS headspace release in 1,7-heptanediol [1]",PTR-MS headspace release in Propylene glycol [1],"Percent suppression by 1,3-butanediol relative to 1,4-butanediol [1] [%]",Release Differences [2],"effect of 1,3-propanediol on flavor release relative to propylene glycol, water/solvent [3]","release suppressed in the presence of 1,3-propanediol [4]","effect of 1,3-propanediol on release [4, 5]","Percent Suppression by 1,3-propanediol [4, 6] [%]","Percent Suppression by 1,3-propanediol ([4]; ratio 0.05:100) [%]","Percent Suppression by 1,3-propanediol ([4]; ratio 5:100) [%]","Percent Suppression by 1,3-propanediol ([4]; ratio 15:100) [%]","effect of 1,3-propanediol on release ([4]; flavor to 1,3-propanediol ratio of about 0.005:100 to 15:100)","effect of 1,3-propanediol on release ([4]; ratio 0.005:100)"
Cc1nc(C)c(C)nc1C [Tetramethyl pyrazine],12.3,9.89,20.5,22.0,17.85,−67.3,Z,little effect,suppressed,significant suppression effect,10.2,−44.6,−17.8,−5.6,,
CCCCCCCCCC(=O)OCC [Ethyl decanoate],117.0,23.9,258.0,131.3,16.84,−120.5,,little effect,,,−2.0,41.9,17.8,−12.4,,
CC(=O)O [Acetic acid],16.9,9.90,15.6,13.4,13.70,8.0,P,little effect,suppressed,significant suppression effect,−0.5,−27.7,−1.7,−9.0,,
SCc1ccco1 [Furfuryl mercaptan],1.3,0.55,0.3,2.1,0.51,73.9,,significantly increase the rate of release,,,31.8,7.8,15.9,−13.1,,
"CC(C)=CCCC(C)=CC=O [Citral, 3,7-dimethyl-2,6-octadienal]",6.0,5.83,13.5,24.3,18.80,−124.2,,significantly suppressed release,suppressed,,−70.0,−69.0,−45.4,−58.2,significant suppression effect,still suppressed
COc1ccccc1O [Guaiacol],28.4,18.95,39.9,36.2,36.50,−40.3,,significantly suppressed release,suppressed,significant suppression effect,−3.4,−48.1,−19.9,0.2,,
CCCCOC(=O)CCC [Butyl butyrate],27.9,13.57,49.4,46.4,10.50,−77.2,Z,,,,−3.3,29.2,−20.5,−8.2,,
CCCCCCCC=O [Octanal],42.9,10.70,56.0,67.0,11.95,−30.5,,significantly suppressed release,,,2.6,−10.5,−21.1,−2.5,,
